Measurements published in patent US20020045764A1, “Tubulin binding compounds (COBRA)” (Parker Hughes Institute, priority 1998, published 2002).

Experiments:
Bovine brain tubulin = molecular target: T1, Bovine brain tubulin (Bos taurus, UniProt P81947+Q6B856); assay: Tubulin turbidity assay (GTP-induced tubulin polymerization); format: biochemical
T1 construct: purchased Sigma, St. Louis, Mo; host or cells: bovine brain (tissue-purified)
Experimental: Bovine brain tubulin (Sigma, St. Louis, Mo.) was used in standard turbidity assays to test the effects of compounds COBRA-1 and COBRA-2 as well as control compounds on GTP-induced tubulin polymerization. Compounds (in 1% DMSO) were added to tubulin (1 mg/ml, 0.1M MES, 1 mM EGTA, 0.5 mM MgCl2, 0.1 mM EDTA, 2.5M glycerol, 1 μg/ml leupeptin, 1 μg/ml aprotinin, pH 6.5) followed by stimulation of polymerization with 1 mM GTP at 2 minutes and 1 mM taxol at 30 minutes. Optical density was measured using a Becton Dickinson UV spectrophotometer (350 nm) using a thermostated cuvette holder to keep the reaction at 37° C. Readings obtained from the spectro-photometer were standardized by subtracting the background absorbance of the compound in water from the sample reading following drug addition.
To test the latitude of the structure at the opposite end of the molecule from the long chain (head region), three new COBRA compounds were synthesized according to the schemes shown below: COBRA-3, COBRA-4, and COBRA-5. Each of these compounds was then tested for tubulin depolymerization activity, using the tubidity assay described in the Examples above.
Each of these compounds was assayed for effects on GTP-dependent tubulin polymerization, using the methods described above.

human cell lines = assay: Anti-cancer activity against human cell lines; format: cell-based

T1 sequence (P81947 whole entry): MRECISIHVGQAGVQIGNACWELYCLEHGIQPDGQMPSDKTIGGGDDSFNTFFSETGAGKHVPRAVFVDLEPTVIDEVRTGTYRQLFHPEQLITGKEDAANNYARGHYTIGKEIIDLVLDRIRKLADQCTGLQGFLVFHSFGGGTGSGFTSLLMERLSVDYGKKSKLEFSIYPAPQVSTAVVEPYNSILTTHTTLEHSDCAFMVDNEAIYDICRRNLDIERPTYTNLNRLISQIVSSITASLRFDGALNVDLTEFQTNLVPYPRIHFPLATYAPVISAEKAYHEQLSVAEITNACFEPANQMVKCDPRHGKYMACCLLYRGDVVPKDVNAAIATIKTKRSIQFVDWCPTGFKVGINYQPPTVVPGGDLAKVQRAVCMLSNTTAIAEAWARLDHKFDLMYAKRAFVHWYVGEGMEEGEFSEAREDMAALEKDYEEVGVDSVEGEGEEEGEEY
T1 sequence (Q6B856 whole entry): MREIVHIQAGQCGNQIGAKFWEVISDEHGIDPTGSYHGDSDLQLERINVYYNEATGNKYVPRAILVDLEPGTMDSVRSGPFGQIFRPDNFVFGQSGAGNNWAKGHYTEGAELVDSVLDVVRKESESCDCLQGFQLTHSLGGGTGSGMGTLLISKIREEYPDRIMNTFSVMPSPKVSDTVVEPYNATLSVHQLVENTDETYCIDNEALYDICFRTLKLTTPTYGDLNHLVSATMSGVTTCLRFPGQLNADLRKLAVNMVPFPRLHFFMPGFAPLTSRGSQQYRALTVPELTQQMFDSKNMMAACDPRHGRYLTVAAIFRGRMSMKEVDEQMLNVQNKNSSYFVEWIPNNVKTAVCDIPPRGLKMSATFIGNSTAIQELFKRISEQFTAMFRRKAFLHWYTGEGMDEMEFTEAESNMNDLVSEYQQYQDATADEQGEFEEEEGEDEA

`CCCCCCCCCCCCSCC(NC(C)=O)C(=O)CCl` (stereo not drawn) [COBRA-5, N-Ac-S-dodecyl-Cys Chloromethyl Ketone] was tested, and the “effect on GTP-dependent tubulin polymerization (turbidity)” value (Bovine brain tubulin; 1 mg/ml tubulin, 1 mM GTP, 37° C., OD 350 nm) was “caused partial depolymerization of tubulin and completely inhibited its polymerization in the presence of GTP”, the IC90 (Bovine brain tubulin; stated in the tubulin polymerization paragraph, assay not named) was 10 µM and the “anti-cancer activity against human cell lines” value (human cell lines) was “very potent anti-cancer activity”.
